Measurements published in US20060281771A1, “SYNERGISTIC MODULATION OF FLT3 KINASE USING AMINOQUINOLINE AND AMINOQUINAZOLINE KINASE MODULATORS” (priority 2005, published 2006).
Entries after “also recorded” stand apart in the source; their conditions may differ.

Tests used:
[1] = target: T1, isolated kinase domain of the human FLT3 receptor (a.a. 571-993) (Homo sapiens, UniProt P36888); experiment: FLT3 fluorescence polarization kinase assay; type: biochemical
T1 construct: human FLT3 receptor (a.a. 571-993)
T1 sequence (P36888 571-993): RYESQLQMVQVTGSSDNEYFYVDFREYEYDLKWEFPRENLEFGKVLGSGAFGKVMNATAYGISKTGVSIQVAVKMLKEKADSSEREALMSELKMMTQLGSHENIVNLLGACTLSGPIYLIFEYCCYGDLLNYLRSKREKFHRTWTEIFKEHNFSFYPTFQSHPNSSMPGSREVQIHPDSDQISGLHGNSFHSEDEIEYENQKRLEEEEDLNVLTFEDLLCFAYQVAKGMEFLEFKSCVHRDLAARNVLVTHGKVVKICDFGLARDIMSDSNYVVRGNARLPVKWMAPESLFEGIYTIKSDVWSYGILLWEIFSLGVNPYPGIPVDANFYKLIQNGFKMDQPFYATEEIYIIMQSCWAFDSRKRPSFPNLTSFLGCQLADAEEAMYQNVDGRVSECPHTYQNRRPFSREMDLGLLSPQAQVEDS
Description: The FLT3 FP assay utilizes the fluorescein-labeled phosphopeptide and the anti-phosphotyrosine antibody included in the Panvera Phospho-Tyrosine Kinase Kit (Green) supplied by Invitrogen. When FLT3 phosphorylates polyGlu4Tyr, the fluorescein-labeled phosphopeptide is displaced from the anti-phosphotyrosine antibody by the phosphorylated poly Glu4Tyr, thus decreasing the FP value. […] The kinase reaction is stopped with the addition of EDTA. The fluorescein-labeled phosphopeptide and the anti-phosphotyrosine antibody are added and incubated for 30 minutes at room temperature.
All data points are an average of triplicate samples. Inhibition and IC50 data analysis was done with GraphPad Prism using a non-linear regression fit with a multiparamater, sigmoidal dose-response (variable slope) equation.

[2] = test system: MV4-11 cells; experiment: Inhibition of MV4-11 cell proliferation (CellTiterGlo, 72 h); type: cell-based; conditions: Homo sapiens; 72 h growth inhibition
Experimental: To assess the cellular potency of the FLT3 inhibitors of Formula I′, FLT3 specific growth inhibition was measured in the leukemic cell line MV4-11 (ATCC Number: CRL-9591). […] MV4-11 cells cannot grow and survive without active FLT3ITD.
To measure proliferation inhibition by test compounds, the luciferase based CellTiterGlo reagent (Promega), which quantifies total cell number based on total cellular ATP concentration, was used. Cells are plated at 10,000 cells per well in 100 ul of in RPMI media containing penn/strep, 10% FBS and 1 ng/ml GM-CSF or 1 ng/ml IL-3 for MV4-11 and Baf3 cells respectively.
Compound dilutions or 0.1% DMSO (vehicle control) are added to cells and the cells are allowed to grow for 72 hours at standard cell growth conditions (37° C., 5% CO2). For activity measurements in MV4-11 cells grown in 50% plasma, cells were plated at 10,000 cells per well in a 1:1 mixture of growth media and human plasma (final volume of 100 μL). To measure total cell growth an equal volume of CellTiterGlo reagent was added to each well, according to the manufacturer's instructions, and luminescence was quantified. Total cell growth was quantified as the difference in luminescent counts (relative light units, RLU) of cell number at Day 0 compared to total cell number at Day 3 (72 hours of growth and/or compound treatment). One hundred percent inhibition of growth is defined as an RLU equivalent to the Day 0 reading. Zero percent inhibition was defined as the RLU signal for the DMSO vehicle control at Day 3 of growth. All data points are an average of triplicate samples. […] Inhibition and IC50 data analysis was done with GraphPad Prism using a non-linear regression fit with a multiparamater, sigmoidal dose-response (variable slope) equation.
MV4-11 cells express the FLT3 internal tandem duplication mutation, and thus are entirely dependent upon FLT3 activity for growth. […] In contrast, the Baf3 cell proliferation is driven by the cytokine IL-3 and thus are used as a non-specific toxicity control for test compounds.

[3] = test system: MV4-11 AML cells; experiment: Cell proliferation assay and combination index analysis, MV4-11; type: cell-based, human; conditions: single agent; depending on the cell type
Description: (§1) All data points are an average of triplicate samples.
as §1

[4] = Body weight and overt toxicity in tumor-bearing mice; conditions: alone or in combination
Experimental: Female athymic nude mice weighing no less than 20-21 grams were inoculated subcutaneously in the left inguinal region of the thigh with 5×10^6 tumor cells in a delivery volume of 0.2 mL. For regression studies, the tumors were allowed to grow to a pre-determined size prior to initiation of dosing. […] Mice were dosed orally by gavage with vehicle (control group) or compound at various doses twice-daily (b.i.d.) during the week and once-daily (q.d.) on weekends. […] If tumors in the control mice reached ˜10% of body weight (˜2.0 grams), the study was to be terminated. […] During the study, tumor growth was measured three times-a-week (M, W, F) using electronic Vernier calipers. Tumor volume (mm^3) was calculated using the formula […], where L=length (mm) and W=width (shortest distance in mm) of the tumor. […]
Female athymic nude mice weighing no less than 20-21 grams were inoculated subcutaneously in the left inguinal region of the thigh with 5×10^6 tumor cells in a delivery volume of 0.2 mL. For regression studies, the tumors were allowed to grow to a pre-determined size prior to initiation of dosing. […] During the study, tumor growth was measured three times-a-week (M, W, F) using electronic Vernier calipers. Tumor volume (mm^3) was calculated using the formula […], where L=length (mm) and W=width (shortest distance in mm) of the tumor. […]

[5] = test system: MV4-11 tumor xenografts; experiment: MV4-11 human tumor xenograft regression model; type: in vivo, nude mice; conditions: Tipifarnib alone 50 mg/kg po
Experimental: Female athymic nude mice (CD-1, nu/nu, 9-10 weeks old) were obtained from Charles River Laboratories (Wilmington, Mass.) and were maintained according to NIH standards. All mice were group housed (5 mice/cage) under clean-room conditions in sterile micro-isolator cages on a 12-hour light/dark cycle in a room maintained at 21-22° C. and 40-50% humidity. Mice were fed irradiated standard rodent diet and water ad libitum. All animals were housed in a Laboratory Animal Medicine facility that is fully accredited by the American Association for Assessment and Accreditation of Laboratory Animal Care (AAALAC). […]
The time course of the inhibitory effects of FLT3 inhibitor compounds on the growth of MV4-11 tumors is illustrated in FIG. 1. […] Percent inhibition (% I) of tumor growth was calculated versus tumor growth in the vehicle-treated Control group on the last study day.
Statistical significance versus Control was determined by Analysis of Variance (ANOVA) followed by Dunnett's t-test: * p<0.05; ** p<0.01.
(See FIG. 2). […] Percent Inhibition was calculated versus the mean tumor weight in the vehicle-treated control group. Statistical significance versus Control was determined by ANOVA followed by Dunnett's t-test: ** p<0.01. […]

[6] = cited from earlier work
[7] = multicenter Phase II trial, relapsed AML
[8] = patients with relapsed and refractory AML

SMILES | IC50 [1] [µM] | IC50 [2] [µM] | other results
CC(C)c1ccc(NC(=O)NC2CCN(c3ccnc4ccccc34)C2)cc1 (stereo not shown) [Compound 27, (4-Isopropyl-phenyl)-3-(1-quinolin-4-yl)-pyrrolidin-3-yl-urea] | 0.457 | 5.3 | –
Cn1cncc1C(N)(c1ccc(Cl)cc1)c1ccc2c(c1)c(-c1cccc(Cl)c1)cc(=O)n2C (single isomer, unassigned; (+)) [Tipifarnib, (+)-6-[amino(4-chlorophenyl)(1-methyl-1H-imidazol-5-yl)methyl]-4-(3-chlorophenyl)-1-methyl-2(1H)-quinolinone] | – | – | potency range [3]: high nanomolar to high picomolar range; overt toxicity ([4]; 9-day treatment): No overt toxicity; overt toxicity ([4]; 16-day treatment): No overt toxicity; effect on tumor volume vs control ([5]; 9 days, Day 9): not significantly reduced; also recorded: ineffective; effect on tumor growth ([5]; 16 days): ineffective; >50% reduction in bone marrow blasts [6, 7]: 31 of 50; complete responses (bone marrow blasts <5%) [6, 7]: 17 of 50; patients achieving complete remission [6, 8]: 2 patients; response rate [6, 8]: ~30%
CC(C)c1ccc(NC(=O)OC2CCN(c3ccnc4ccccc34)C2)cc1 (stereo not shown) [Compound 34] | 1.05 | 6.4 | –
CC(C)c1ccc(NC(=O)OC2CCN(c3ccnc4ccccc34)CC2)cc1 [Compound 10] | 0.026 | 1.1 | –
COc1cc2ncc(C#N)c(N3CCC(OC(=O)Nc4ccc(OC(C)C)cc4)CC3)c2cc1OC [Compound 40, (4-Isopropoxy-phenyl)-carbamic acid 1-(3-cyano-6,7-dimethoxy-quinolin-4-yl)-piperidin-4-yl ester] | > 10 | – | –
COc1cc2ncnc(N3CC(CNC(=O)Nc4ccc(OC(C)C)cc4)C3)c2cc1OC [Compound 25, 1-[1-(6,7-Dimethoxy-quinazolin-4-yl)-azetidin-3-ylmethyl]-3-(4-isopropoxy-phenyl)-urea] | 0.408 | > 10 | –
CC(C)Oc1ccc(NC(=O)NC2CCN(c3ccnc4ccccc34)C2)cc1 (stereo not shown) [Compound 38, (4-Isopropoxy-phenyl)-3-(1-quinolin-4-yl)-pyrrolidin-3-yl-urea] | 3.15 | > 3 | –
COc1cc2ncnc(N3CCC(C(=O)Nc4cccc(OC(C)C)c4)CC3)c2cc1OC [Compound 30, 1(-6,7-Dimethoxy-quinazolin-4-yl)-piperidine-4-carboxylic acid (3-isopropoxy-phenyl)-amide] | 0.563 | 2.31 | –
COc1cc2ncnc(N3CCC(OC(=O)Nc4ccc(OC5CCC5)nc4)CC3)c2cc1OC [Compound 11, (6-Cyclobutoxy-pyridin-3-yl)-carbamic acid 1-(6,7-dimethoxy-quinazolin-4-yl)-piperidin-4-yl ester] | 0.028 | 0.071 | –
CC(C)c1ccc(NC(=O)OC2CCN(c3ncnc4ccccc34)C2)cc1 (stereo not shown) [Compound 24, (4-Isopropyl-phenyl)-carbamic acid 1-quinazolin-4-yl-pyrrolidin-3-yl ester] | 0.29 | 0.22 | –
CC(C)Oc1ccc(NC(=O)OC2CCN(c3ccnc4ccccc34)C2)cc1 (stereo not shown) [Compound 39] | 7.14 | > 10 | –
